Assay results from US20240090503A1, “FUNGICIDAL OXADIAZOLES AND THEIR MIXTURES” (FMC CORPORATION, priority 2020, published 2024).

What was measured:
[1] = test system: Phakopsora pachyrhizi (the causal agent of Asian soybean rust); test: Test A: preventive spray on soybean seedlings, Asian soybean rust, visual disease rating; assay type: in vivo; conditions: soybean seedlings; for pest or weed control at 10 µg/mL: Phakopsora pachyrhizi, 216 h, read-out: Test A disease control rating
From the text: (§1) General protocol for preparing test suspensions for Tests A-D: the test compounds were first dissolved in acetone in an amount equal to 3% of the final volume and then suspended at the desired concentration (in ppm) in acetone and purified water (50/50 mix by volume) containing 250 ppm of the surfactant PEG400 (polyhydric alcohol esters). The resulting test suspensions were then used in Tests A-D.
(§2) The test suspension was sprayed to the point of run-off on soybean seedlings. The following day the seedlings were inoculated with a spore suspension of Phakopsora pachyrhizi (the causal agent of Asian soybean rust) and incubated in a saturated atmosphere at 22° C. for 24 h and then moved to a growth chamber at 22° C. for 8 days, after which time visual disease ratings were made.
(§3) The test results for Tests A-C presented in Table A below for compounds of Formula 1 illustrate the fungicidal activity of component (a) contributing to the plant disease control utility of compositions comprising component (a) in combination with component (b) according to the present invention. In the Table, a rating of 100 indicates 100% disease control and a rating of 0 indicates no disease control (relative to the controls). A dash (-) indicates the compound was not tested. The test suspensions were sprayed at the concentration listed in the column “Rate in ppm”, unless otherwise indicated. An asterisk “*” next to the rating indicates a 250 ppm test suspension was used, a double asterisk “**” next to the rating indicates a 100 ppm test suspension was used, and a triple asterisk “***” next to the rating indicates a 50 ppm test suspension was used.

[2] = test system: Puccinia recondita f. sp. tritici (the causal agent of wheat leaf rust); test: Test C: preventive spray on wheat seedlings, wheat leaf rust, visual disease rating; assay type: in vivo; conditions: wheat seedlings; for pest or weed control at 10 µg/mL: Puccinia recondita, 168 h, read-out: Test C disease control rating
From the text: as §1
as §2, with “on wheat” for “on soybean”, “of Puccinia recondita f. sp. tritici;” for “of Phakopsora pachyrhizi”, “of wheat leaf” for “of Asian soybean”, “at 20°” for “at 22°”, “24 h,” for “24 h”, “for 6” for “for 8”
as §3

[3] = 10 ppm test suspension, 100 = 100% disease control, 0 = no control
[4] = test suspension 10 ppm, 100 = 100% disease control, 0 = no control
[5] = 50 ppm test suspension, 100 = 100% disease control, 0 = no control

O=C(OCCCl)c1cnn(Cc2ccc(-c3noc(C(F)(F)F)n3)cc2)c1 [compound 477]
Test A disease control rating [1, 3]: 100% | Test C disease control rating [2, 3]: 100%

FC(F)(F)c1nc(-c2ccc(Cn3ccc(S(F)(F)(F)(F)F)n3)cc2)no1 [compound 503]
Test A disease control rating [1, 3]: 43% | Test C disease control rating [2, 3]: 0%

CCCCCOC(=O)c1cnn(Cc2ccc(-c3noc(C(F)(F)F)n3)cc2)c1 [compound 447]
Test A disease control rating [1, 3]: 100% | Test C disease control rating [2, 3]: 100%

O=C(OCc1ccccc1)c1cnn(Cc2ccc(-c3noc(C(F)(F)F)n3)cc2)c1 [compound 412]
Test A disease control rating [1, 3]: 100% | Test C disease control rating [2, 3]: 100%

CCCOC(=O)c1cnn(Cc2cc(-c3noc(C(F)(F)F)n3)cs2)c1 [compound 250]
Test A disease control rating [1, 4]: 100% | Test C disease control rating ([2]; test suspension 10 ppm): 74%

CCOC(=O)c1cnn(COCc2ccc(-c3noc(C(F)(F)F)n3)cc2)c1 [compound 362]
Test A disease control rating ([1]; test suspension 50 ppm): 100% | Test C disease control rating ([2]; test suspension 50 ppm): 100%

N#Cc1cnn(Cc2ccc(-c3noc(C(F)(F)F)n3)s2)c1 [compound 189]
Test A disease control rating ([1]; test suspension 50 ppm): 100% | Test C disease control rating ([2]; test suspension 50 ppm): 100%

FC(F)(F)c1nc(-c2ccc(Cn3cc4cnc(Cl)nc4n3)cc2)no1 [compound 433]
Test A disease control rating [1, 3]: 100% | Test C disease control rating [2, 3]: 99%

CS(=O)(=O)CCOC(=O)c1cnn(Cc2ccc(-c3noc(C(F)(F)F)n3)cc2)c1 [compound 390]
Test A disease control rating [1, 3]: 100% | Test C disease control rating [2, 3]: 100%

O=C(OCc1ccccn1)c1cnn(Cc2ccc(-c3noc(C(F)(F)F)n3)cc2)c1 [compound 479]
Test A disease control rating [1, 3]: 100% | Test C disease control rating [2, 3]: 100%

Nc1ccc2c(cnn2Cc2ccc(-c3noc(C(F)(F)F)n3)cc2)c1 [compound 115]
Test A disease control rating [1, 4]: 98% | Test C disease control rating ([2]; test suspension 10 ppm): 95%

COc1ccc2c(cnn2Cc2ccc(-c3noc(C(F)(F)F)n3)s2)c1 [compound 195]
Test A disease control rating [1, 4]: 100% | Test C disease control rating ([2]; test suspension 10 ppm): 98%

FC(F)(F)c1nc(-c2ccc(Cn3ccc(Br)n3)cc2)no1 [compound 97]
Test A disease control rating ([1]; test suspension 50 ppm): 99% | Test C disease control rating ([2]; test suspension 50 ppm): 100%

C=C(C#N)COC(=O)c1cnn(Cc2ccc(-c3noc(C(F)(F)F)n3)cc2)c1 [compound 486]
Test A disease control rating [1, 3]: 100% | Test C disease control rating [2, 3]: 89%

COC(=O)c1cnn(CCCc2ccc(-c3noc(C(F)(F)F)n3)cc2)c1 [compound 427]
Test A disease control rating [1, 5]: 100% | Test C disease control rating [2, 5]: 67%

FC(F)(F)c1nc(-c2ccc(Cn3ccc4ccncc43)cc2)no1 [compound 135]
Test A disease control rating [1, 4]: 96% | Test C disease control rating ([2]; test suspension 10 ppm): 0%

CC(C)ON=Cc1cnn(Cc2ccc(-c3noc(C(F)(F)F)n3)cc2)c1 [compound 388]
Test A disease control rating [1, 3]: 100% | Test C disease control rating [2, 3]: 100%

COC(=O)c1cccc2c1cnn2Cc1ccc(-c2noc(C(F)(F)F)n2)cc1 [Compound 49, methyl 1-[[4-[5-(trifluoromethyl)-1,2,4-oxadiazol-3-yl]phenyl]methyl]-1H-indazole-4-carboxylate]
pest or weed control at 10 µg/mL [1, 4]: 100% | pest or weed control at 10 µg/mL ([2]; test suspension 10 ppm): 100%

Cc1c2cc(Br)ccc2nn1Cc1ccc(-c2noc(C(F)(F)F)n2)cc1 [compound 52]
Test A disease control rating [1, 4]: 99% | Test C disease control rating ([2]; test suspension 10 ppm): 80%

CCOC(=O)c1cnn(CSCc2ccc(-c3noc(C(F)(F)F)n3)cc2)c1 [compound 241]
Test A disease control rating [1, 4]: 100% | Test C disease control rating ([2]; test suspension 10 ppm): 100%

N#CCCCOC(=O)c1cnn(Cc2ccc(-c3noc(C(F)(F)F)n3)cc2)c1 [compound 274]
Test A disease control rating [1, 4]: 100% | Test C disease control rating ([2]; test suspension 10 ppm): 100%

CCOC(=O)c1cnn(C(C)c2ccc(-c3noc(C(F)(F)F)n3)s2)c1 (centres unmarked) [compound 246]
Test A disease control rating [1, 4]: 100% | Test C disease control rating ([2]; test suspension 10 ppm): 100%

FC(F)(F)c1nc(-c2ccc(Cn3nc4ccccc4c3Br)cc2)no1 [compound 113]
Test A disease control rating [1, 4]: 99% | Test C disease control rating ([2]; test suspension 10 ppm): 0%

COC(=O)c1nccn(Cc2ccc(-c3noc(C(F)(F)F)n3)cc2)c1=O [compound 423]
Test A disease control rating [1, 3]: 86% | Test C disease control rating [2, 3]: 80%

N#Cc1nn(Cc2ccc(-c3noc(C(F)(F)F)n3)cc2)c2ccccc12 [compound 104]
Test A disease control rating [1, 4]: 100% | Test C disease control rating ([2]; test suspension 10 ppm): 68%

CCOC(=O)c1cc(C(=O)OCC)n(Cc2ccc(-c3noc(C(F)(F)F)n3)cc2)n1 [compound 154]
Test A disease control rating ([1]; test suspension 50 ppm): 100% | Test C disease control rating ([2]; test suspension 50 ppm): 100%

O=C(OCC1CC1)c1cnn(Cc2ccc(-c3noc(C(F)(F)F)n3)cc2)c1 [compound 411]
Test A disease control rating [1, 3]: 100% | Test C disease control rating [2, 3]: 100%

CCOc1ccccc1OCCOC(=O)c1cnn(Cc2ccc(-c3noc(C(F)(F)F)n3)cc2)c1 [compound 268]
Test A disease control rating [1, 4]: 100% | Test C disease control rating ([2]; test suspension 10 ppm): 86%

CNC(=O)c1cnn(CCCc2ccc(-c3noc(C(F)(F)F)n3)cc2)c1 [compound 415]
Test A disease control rating [1, 3]: 100% | Test C disease control rating [2, 3]: 96%

COCCNC(=O)c1cc(C)n(Cc2ccc(-c3noc(C(F)(F)F)n3)cc2)n1 [Compound 183, N-(2-methoxyethyl)-5-methyl-1-[[4-[5-(trifluoromethyl)-1,2,4-oxadiazol-3-yl]phenyl]methyl]-1H-pyrazole-3-carboxamide]
pest or weed control at 10 µg/mL [1, 4]: 100% | pest or weed control at 10 µg/mL ([2]; test suspension 10 ppm): 100%

NC(=O)C1COC(Cc2ccc(-c3noc(C(F)(F)F)n3)cc2)=N1 (centres unmarked) [Compound 75, 4,5-dihydro-2-[[4-[5-(trifluoromethyl)-1,2,4-oxadiazol-3-yl]phenyl]methyl]-4-oxazolecarboxamide]
pest or weed control at 10 µg/mL [1, 4]: 100% | pest or weed control at 10 µg/mL ([2]; test suspension 10 ppm): 68%

C=C(Cl)COC(=O)c1cnn(Cc2ccc(-c3noc(C(F)(F)F)n3)cc2)c1 [compound 482]
Test A disease control rating [1, 3]: 100% | Test C disease control rating [2, 3]: 100%

C#CCOC(=O)c1cnn(Cc2ccc(-c3noc(C(F)(F)F)n3)s2)c1 [compound 190]
Test A disease control rating [1, 4]: 100% | Test C disease control rating ([2]; test suspension 10 ppm): 100%

CN(C)C(=O)c1nn(Cc2ccc(-c3noc(C(F)(F)F)n3)cc2)c2ccccc12 [compound 148]
Test A disease control rating [1, 4]: 100% | Test C disease control rating ([2]; test suspension 10 ppm): 96%

FC(F)(F)c1nc(-c2ccc(Cn3cc4ncccc4n3)cc2)no1 [compound 409]
Test A disease control rating [1, 3]: 100% | Test C disease control rating [2, 3]: 100%

CC(=O)COC(=O)c1cnn(Cc2ccc(-c3noc(C(F)(F)F)n3)cc2)c1 [compound 349]
Test A disease control rating [1, 4]: 100% | Test C disease control rating ([2]; test suspension 10 ppm): 100%

CCN(CC)C(=O)C1=NOC(Cc2ccc(-c3noc(C(F)(F)F)n3)s2)C1 (centres unmarked) [compound 430]
Test A disease control rating [1, 5]: 100% | Test C disease control rating [2, 5]: 100%

COc1cc(=O)n(Cc2ccc(-c3noc(C(F)(F)F)n3)cc2)nc1Cl [compound 27]
Test A disease control rating ([1]; test suspension 50 ppm): 100% | Test C disease control rating ([2]; test suspension 50 ppm): 100%

CCOC(=O)c1cnn(CCCc2ccc(-c3noc(C(F)(F)F)n3)cc2)c1 [compound 428]
Test A disease control rating [1, 5]: 100% | Test C disease control rating [2, 5]: 100%

O=C(OCCCCl)c1cnn(Cc2ccc(-c3noc(C(F)(F)F)n3)cc2)c1 [compound 448]
Test A disease control rating [1, 3]: 100% | Test C disease control rating [2, 3]: 100%

O=C(OCC(F)F)c1cnn(Cc2ccc(-c3noc(C(F)(F)F)n3)cc2)c1 [compound 392]
Test A disease control rating [1, 3]: 100% | Test C disease control rating [2, 3]: 100%

FC(F)(F)c1nc(-c2ccc(CN3Cc4ccccc4C3)cc2)no1 [compound 160]
Test A disease control rating [1, 4]: 99% | Test C disease control rating ([2]; test suspension 10 ppm): 98%

FC(F)(F)c1nc(-c2ccc(Cn3ncc4cc(Br)cnc43)cc2)no1 [compound 413]
Test A disease control rating [1, 3]: 100% | Test C disease control rating [2, 3]: 68%

N#Cc1ccc(COC(=O)c2cnn(Cc3ccc(-c4noc(C(F)(F)F)n4)cc3)c2)cc1 [compound 301]
Test A disease control rating [1, 4]: 100% | Test C disease control rating ([2]; test suspension 10 ppm): 100%

FC(F)(F)c1nc(-c2ccc(Cn3cc4c(I)cc(Cl)cc4n3)cc2)no1 [compound 38]
Test A disease control rating [1, 4]: 78% | Test C disease control rating ([2]; test suspension 10 ppm): 68%

Nc1ncnc2c1cnn2Cc1ccc(-c2noc(C(F)(F)F)n2)cc1 [compound 407]
Test A disease control rating [1, 3]: 100% | Test C disease control rating [2, 3]: 100%
